{"source": "patent US4264596A", "about": "“Maytansinoids, pharmaceutical compositions thereof and method of use thereof” (Takeda Chemical Industries, Ltd., priority 1980, dated 1981)", "key": {"[1]": {"tested_on": "melanoma B-16", "experiment": "Antitumor therapeutic test in mice (life span prolongation), melanoma B-16 intraperitoneally transplanted, NCI-protocol 1,300", "format": "in vivo, mouse", "conditions": "i.p. once daily for 9 consecutive days", "method": "Therapeutic tests were carried out in mice according to NCI-protocol 1,300, Cancer Chemother, Reports, Part 3, 1972 , Vol.3, No.2, in which melanoma B-16 tumor cells had been intraperitoneally transplanted, compound (I) being administered intraperitoneally once daily for 9 consecutive days."}, "[2]": {"tested_on": "Tetrahymena pyriformis W", "experiment": "Antiprotozoal activity, growth inhibition by serial dilution method", "format": "cell-based", "conditions": "28° C., 44 to 48 hours, pH 7.0, serial dilution method, read-out: Antiprotozoal activity, MIC (minimal inhibitory concentration)", "method": "Antiprotozoal activity of compound (I) was assayed with Tetrahymena pyriformis W as the test organism and a medium composed of 20 g tryptose-peptone (Difco Co.), 1 g yeast extract, 2 g glucose, 1000 ml distilled water, 10 ml 1 M phosphate buffer (pH 7.0) as the assay medium. The microorganism was incubated at 28° C. for 44 to 48 hours and the growth inhibitory activity of compound (I) was assayed by the serial dilution method."}}, "data": [{"smiles": "COC1C=CC=C(C)Cc2cc(OS(C)(=O)=O)c(Cl)c(c2)N(C)C(=O)CC(OC(=O)C(C)C)C2(C)OC2C(C)C2CC1(O)NC(=O)O2", "note": "(stereo not drawn) [PDM-3-C20-methenesulfonate, PDM-3-C20-methanesulfonate]", "values": [{"measurement": "Antitumor activities B-16 (T/C %), life span prolongation", "setting": "[1]; 6.2 μg/kg", "result": 154, "unit": "%"}, {"measurement": "Antitumor activities B-16 (T/C %), life span prolongation", "setting": "[1]; 12.5 μg/kg", "result": 195, "unit": "%"}, {"measurement": "Antitumor activities B-16 (T/C %), life span prolongation", "setting": "[1]; 25 μg/kg", "result": 178, "unit": "%"}, {"measurement": "Antitumor activities B-16 (T/C %), life span prolongation", "setting": "[1]; 50 μg/kg", "result": 189, "unit": "%"}, {"measurement": "Antitumor activities B-16 (T/C %), life span prolongation", "setting": "[1]; 100 μg/kg", "result": 218, "unit": "%"}, {"measurement": "Antitumor activities B-16 (T/C %), life span prolongation", "setting": "[1]; 200 μg/kg", "result": 246, "unit": "%"}]}, {"smiles": "COC1C=CC=C(C)Cc2cc(OS(=O)(=O)c3ccc(N)cc3)c(Cl)c(c2)N(C)C(=O)CC(OC(=O)C(C)C)C2(C)OC2C(C)C2CC1(O)NC(=O)O2", "note": "(stereo not drawn) [PDM-3-C20-p-aminobenzenesulfonate]", "values": [{"measurement": "MIC", "setting": "[2]", "result": "2 to 4", "unit": "µg/mL"}]}, {"smiles": "COC1C=CC=C(C)Cc2cc(OS(=O)(=O)c3ccc(Cl)cc3)c(Cl)c(c2)N(C)C(=O)CC(OC(=O)C(C)C)C2(C)OC2C(C)C2CC1(O)NC(=O)O2", "note": "(stereo not drawn) [PDM-3-C20-p-chlorobenzenesulfonate]", "values": [{"measurement": "MIC", "setting": "[2]", "result": 2, "unit": "µg/mL"}]}, {"smiles": "COC1C=CC=C(C)Cc2cc(OS(=O)(=O)c3ccc(C)cc3)c(Cl)c(c2)N(C)C(=O)CC(OC(=O)C(C)C)C2(C)OC2C(C)C2CC1(O)NC(=O)O2", "note": "(stereo not drawn) [PDM-3-C20-p-toluenesulfonate]", "values": [{"measurement": "MIC", "setting": "[2]", "result": "1 to 2", "unit": "µg/mL"}]}]}
